Data set [1] in a line: Plasma Stability Test (IV dosing of prodrug, HPLC analysis of blood plasma). The settings on record: dogs, IV at 2 mg/mL, HPLC analysis of blood plasma for 4 hours following dosing. The data set is classed as in vivo. The protocol: The prodrug (3Z)-3-[(3,5-dimethyl-1H-pyrrol-2-yl)-methylidene]-1-(1-pyrrolidinylmethyl)-1,3-dihydro-2H-indol-2-one was administered IV at 2 mg/mL to dogs. Levels of both prodrug and drug (3(Z)-3-[(3,5-dimethyl-1H-pyrrol-2-yl)-methylidene]-1,3-dihydro-2H-indol-2-one) were followed by HPLC analysis of blood plasma for 4 hours following dosing.

Data on five compounds can be found in patent US7112603B2, “Prodrugs of 3-(pyrrol-2-ylmethylidene)-2-indolinone derivatives” (Agouron Pharmaceuticals, Inc., priority 2000, dated 2006).

On to `Cc1cc(C)c(/C=C2\C(=O)N(CN3CCCC3)c3ccccc32)[nH]1` [Example 14, (3Z)-3-[(3,5-dimethyl-1H-pyrrol-2-yl)-methylidene]-1-(1-pyrrolidinylmethyl)-1,3-dihydro-2H-indol-2-one], for which, in data set [1], the “half-life for conversion of the prodrug to drug” value is recorded as 7.3 min and the “prodrug converted into drug (from area under the curve of drug concentration vs. time)” value came to 80%.

On to `Cc1cc(C)c(/C=C2\C(=O)N(CO)c3ccccc32)[nH]1`, for which the melting point lay within 200 to 202 °C. `Cc1cc(C)c(/C=C2\C(=O)N(COC(=O)CCC(=O)O)c3ccccc32)[nH]1` came in with a melting point of 160 to 162 °C. On the same count and under the same terms, next, `CC(=O)OC(C)N1C(=O)/C(=C\c2[nH]c(C)cc2C)c2ccccc21` (stereo not drawn): 107 to 110 °C; `Cc1cc(C)c(/C=C2\C(=O)N(C(=O)CNC(=O)OCc3ccccc3)c3ccccc32)[nH]1`: 193 to 196 °C.

In general, melting point refers to the temperature of the solid-liquid transition.
